Measured values: PubChem BioAssay (NCI)
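Growth conditions: 96-well plates. Treatment: test compound, 48 hours, 5 concentrations. Analysis: linear interpolation between bracketing concentrations; unreached endpoints set to highest concentration. At the TGI there is no net growth.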

Tests used:
Experiment in all cases: inhibition of tumour cell growth, NCI panel, 48 h
SK-MEL-2 melanoma = system: SK-MEL-2 melanoma
SF-268 CNS = system: SF-268 CNS
KM12 colon = system: KM12 colon
A498 renal = system: A498 renal
COLO 205 colon = system: COLO 205 colon
SK-MEL-5 melanoma = system: SK-MEL-5 melanoma
HCT-15 colon = system: HCT-15 colon
CCRF-CEM leukemia = system: CCRF-CEM leukemia
SN12C renal = system: SN12C renal
M19-MEL melanoma = system: M19-MEL melanoma
SNB-78 CNS = system: SNB-78 CNS
OVCAR-4 ovarian = system: OVCAR-4 ovarian
IGROV1 ovarian = system: IGROV1 ovarian
ACHN renal = system: ACHN renal
M14 melanoma = system: M14 melanoma
NCI-H226 lung = system: NCI-H226 lung
U251 CNS = system: U251 CNS
SF-539 CNS = system: SF-539 CNS
LOX IMVI melanoma = system: LOX IMVI melanoma
SNB-19 CNS = system: SNB-19 CNS
HCT-116 colon = system: HCT-116 colon
OVCAR-3 ovarian = system: OVCAR-3 ovarian
RXF 393 renal = system: RXF 393 renal
NCI-H460 lung = system: NCI-H460 lung
UACC-257 melanoma = system: UACC-257 melanoma
OVCAR-8 ovarian = system: OVCAR-8 ovarian
UACC-62 melanoma = system: UACC-62 melanoma
OVCAR-5 ovarian = system: OVCAR-5 ovarian
SR leukemia = system: SR leukemia
HL-60(TB) leukemia = system: HL-60(TB) leukemia
SNB-75 CNS = system: SNB-75 CNS
HOP-62 NSCLC = system: HOP-62 NSCLC
SK-OV-3 ovarian = system: SK-OV-3 ovarian
A549 NSCLC = system: A549 NSCLC
UO-31 renal = system: UO-31 renal
NCI-H522 lung = system: NCI-H522 lung
SK-MEL-28 melanoma = system: SK-MEL-28 melanoma
NCI-H23 lung = system: NCI-H23 lung
DMS 114 small cell lung = system: DMS 114 small cell lung
RPMI-8226 leukemia = system: RPMI-8226 leukemia
786-0 renal = system: 786-0 renal
HCC-2998 colon = system: HCC-2998 colon
HT29 colon = system: HT29 colon
KM20L2 colon = system: KM20L2 colon
CAKI-1 renal = system: CAKI-1 renal
K-562 leukemia = system: K-562 leukemia
SF-295 CNS = system: SF-295 CNS
SW-620 colon = system: SW-620 colon
EKVX NSCLC = system: EKVX NSCLC
TK-10 renal = system: TK-10 renal
MOLT-4 leukemia = system: MOLT-4 leukemia
MALME-3M melanoma = system: MALME-3M melanoma
HOP-92 NSCLC = system: HOP-92 NSCLC
LXFL 529 NSCLC = system: LXFL 529 NSCLC
DMS 273 small cell lung = system: DMS 273 small cell lung
DLD-1 colon = system: DLD-1 colon

In the case of CN(C)C(=S)/N=c1\ss/c(=N\C(=S)N(C)C)n1C1CCCCC1, the TGI (SK-MEL-2 melanoma) was greater than 100 µM, the TGI (SF-268 CNS) was greater than 100 µM and the TGI (KM12 colon) was greater than 100 µM. The TGI (A498 renal) was greater than 100 µM, the TGI (COLO 205 colon) was greater than 100 µM and the TGI (SK-MEL-5 melanoma) was greater than 100 µM. The TGI (HCT-15 colon) was greater than 100 µM, the TGI (CCRF-CEM leukemia) was greater than 100 µM and the TGI (SN12C renal) was greater than 100 µM. For the same compound, the TGI (M19-MEL melanoma) was greater than 100 µM, the TGI (SNB-78 CNS) was greater than 100 µM and the TGI (OVCAR-4 ovarian) was 63 µM. The TGI (IGROV1 ovarian) was greater than 100 µM, the TGI (ACHN renal) was greater than 100 µM and the TGI (M14 melanoma) was greater than 100 µM. The TGI (NCI-H226 lung) was greater than 100 µM, the TGI (U251 CNS) was greater than 100 µM and the TGI (SF-539 CNS) was greater than 100 µM. The TGI (LOX IMVI melanoma) was greater than 100 µM, the TGI (SNB-19 CNS) was greater than 100 µM and the TGI (HCT-116 colon) was greater than 100 µM. The TGI (OVCAR-3 ovarian) was greater than 100 µM, the TGI (RXF 393 renal) was greater than 100 µM and the TGI (NCI-H460 lung) was 15.5 µM. The TGI (UACC-257 melanoma) was greater than 100 µM, the TGI (OVCAR-8 ovarian) was greater than 100 µM and the TGI (UACC-62 melanoma) was greater than 100 µM. The TGI (OVCAR-5 ovarian) was greater than 100 µM, the TGI (SR leukemia) was greater than 100 µM and the TGI (HL-60(TB) leukemia) was greater than 100 µM. It also gave a TGI (SNB-75 CNS) greater than 100 µM, a TGI (HOP-62 NSCLC) greater than 100 µM and a TGI (SK-OV-3 ovarian) greater than 100 µM. It also gave a TGI (A549 NSCLC) greater than 100 µM, a TGI (UO-31 renal) greater than 100 µM and a TGI (NCI-H522 lung) greater than 100 µM. For the same compound, the TGI (SK-MEL-28 melanoma) was greater than 100 µM, the TGI (NCI-H23 lung) was greater than 100 µM and the TGI (DMS 114 small cell lung) was 24.2 µM. It also gave a TGI (RPMI-8226 leukemia) greater than 100 µM, a TGI (786-0 renal) greater than 100 µM and a TGI (HCC-2998 colon) greater than 100 µM. The TGI (HT29 colon) was 43.8 µM, the TGI (KM20L2 colon) was greater than 100 µM and the TGI (CAKI-1 renal) was greater than 100 µM. The TGI (K-562 leukemia) was greater than 100 µM, the TGI (SF-295 CNS) was greater than 100 µM and the TGI (SW-620 colon) was greater than 100 µM. It also gave a TGI (EKVX NSCLC) greater than 100 µM, a TGI (TK-10 renal) greater than 100 µM and a TGI (MOLT-4 leukemia) greater than 100 µM. The TGI (MALME-3M melanoma) was greater than 100 µM.
Cc1ccc(-c2cc(=S)n(-c3ccccc3)c3nc(=S)n(-c4ccccc4)c(N)c23)cc1 showed a TGI (HOP-92 NSCLC) greater than 100 µM, a TGI (SK-MEL-2 melanoma) greater than 100 µM and a TGI (SF-268 CNS) greater than 100 µM. The TGI (KM12 colon) was greater than 100 µM, the TGI (LXFL 529 NSCLC) was greater than 100 µM and the TGI (COLO 205 colon) was greater than 100 µM. The TGI (SK-MEL-5 melanoma) was greater than 100 µM, the TGI (HCT-15 colon) was greater than 100 µM and the TGI (CCRF-CEM leukemia) was greater than 100 µM. The TGI (M19-MEL melanoma) was greater than 100 µM, the TGI (OVCAR-4 ovarian) was greater than 100 µM and the TGI (IGROV1 ovarian) was greater than 100 µM. It also gave a TGI (ACHN renal) greater than 100 µM, a TGI (M14 melanoma) greater than 100 µM and a TGI (NCI-H226 lung) greater than 100 µM. It also gave a TGI (U251 CNS) greater than 100 µM, a TGI (SF-539 CNS) greater than 100 µM and a TGI (SNB-19 CNS) greater than 100 µM. For the same compound, the TGI (HCT-116 colon) was greater than 100 µM, the TGI (OVCAR-3 ovarian) was greater than 100 µM and the TGI (NCI-H460 lung) was greater than 100 µM. The TGI (UACC-257 melanoma) was greater than 100 µM, the TGI (OVCAR-8 ovarian) was greater than 100 µM and the TGI (UACC-62 melanoma) was greater than 100 µM. For the same compound, the TGI (OVCAR-5 ovarian) was greater than 100 µM, the TGI (SR leukemia) was greater than 100 µM and the TGI (HL-60(TB) leukemia) was greater than 100 µM. For the same compound, the TGI (SNB-75 CNS) was greater than 100 µM, the TGI (HOP-62 NSCLC) was greater than 100 µM and the TGI (A549 NSCLC) was greater than 100 µM. The TGI (DMS 273 small cell lung) was greater than 100 µM, the TGI (UO-31 renal) was greater than 100 µM and the TGI (NCI-H522 lung) was greater than 100 µM. The TGI (SK-MEL-28 melanoma) was greater than 100 µM, the TGI (DLD-1 colon) was greater than 100 µM and the TGI (NCI-H23 lung) was greater than 100 µM. It also gave a TGI (DMS 114 small cell lung) greater than 100 µM, a TGI (RPMI-8226 leukemia) greater than 100 µM and a TGI (786-0 renal) greater than 100 µM. The TGI (HCC-2998 colon) was greater than 100 µM, the TGI (HT29 colon) was greater than 100 µM and the TGI (KM20L2 colon) was greater than 100 µM. It also gave a TGI (CAKI-1 renal) greater than 100 µM, a TGI (K-562 leukemia) greater than 100 µM and a TGI (SF-295 CNS) greater than 100 µM. It also gave a TGI (SW-620 colon) greater than 100 µM, a TGI (TK-10 renal) greater than 100 µM and a TGI (MOLT-4 leukemia) greater than 100 µM. For the same compound, the TGI (MALME-3M melanoma) was greater than 100 µM.
For CCCC12Cc3c(OC)ccc(OC)c3CC(Cc3c(OC)ccc(OC)c31)C2=O (stereo not given), the TGI (SK-MEL-2 melanoma) was greater than 100 µM, the TGI (SF-268 CNS) was greater than 100 µM and the TGI (KM12 colon) was greater than 100 µM. The TGI (LXFL 529 NSCLC) was greater than 100 µM, the TGI (A498 renal) was greater than 100 µM and the TGI (SK-MEL-5 melanoma) was greater than 100 µM. It also gave a TGI (HCT-15 colon) greater than 100 µM, a TGI (CCRF-CEM leukemia) greater than 100 µM and a TGI (SN12C renal) greater than 100 µM. It also gave a TGI (M19-MEL melanoma) greater than 100 µM, a TGI (SNB-78 CNS) greater than 100 µM and a TGI (OVCAR-4 ovarian) greater than 100 µM. The TGI (ACHN renal) was greater than 100 µM, the TGI (M14 melanoma) was greater than 100 µM and the TGI (NCI-H226 lung) was greater than 100 µM. It also gave a TGI (U251 CNS) greater than 100 µM, a TGI (SF-539 CNS) greater than 100 µM and a TGI (SNB-19 CNS) greater than 100 µM. The TGI (HCT-116 colon) was greater than 100 µM, the TGI (OVCAR-3 ovarian) was greater than 100 µM and the TGI (RXF 393 renal) was greater than 100 µM. The TGI (NCI-H460 lung) was greater than 100 µM, the TGI (UACC-257 melanoma) was greater than 100 µM and the TGI (OVCAR-8 ovarian) was greater than 100 µM. The TGI (OVCAR-5 ovarian) was greater than 100 µM, the TGI (SR leukemia) was greater than 100 µM and the TGI (HL-60(TB) leukemia) was greater than 100 µM. It also gave a TGI (SNB-75 CNS) greater than 100 µM, a TGI (HOP-62 NSCLC) greater than 100 µM and a TGI (SK-OV-3 ovarian) greater than 100 µM. It also gave a TGI (A549 NSCLC) greater than 100 µM, a TGI (DMS 273 small cell lung) greater than 100 µM and a TGI (UO-31 renal) greater than 100 µM. The TGI (NCI-H522 lung) was greater than 100 µM, the TGI (SK-MEL-28 melanoma) was greater than 100 µM and the TGI (DLD-1 colon) was greater than 100 µM. For the same compound, the TGI (NCI-H23 lung) was greater than 100 µM, the TGI (DMS 114 small cell lung) was greater than 100 µM and the TGI (786-0 renal) was greater than 100 µM. The TGI (HCC-2998 colon) was greater than 100 µM, the TGI (HT29 colon) was greater than 100 µM and the TGI (CAKI-1 renal) was greater than 100 µM. For the same compound, the TGI (K-562 leukemia) was greater than 100 µM, the TGI (SF-295 CNS) was greater than 100 µM and the TGI (SW-620 colon) was greater than 100 µM. It also gave a TGI (EKVX NSCLC) greater than 100 µM, a TGI (TK-10 renal) greater than 100 µM and a TGI (MOLT-4 leukemia) greater than 100 µM. The TGI (MALME-3M melanoma) was greater than 100 µM.
